The nature of data set [1]: Evaluation of brain penetration properties. The data set is classed as in vivo, BALB/cA mice. The following applies: mouse, 0.5 hours after oral 50 mg/kg/day, BALB/cA mice; for Kp at 0.5 h: read-out: Kp value (Compound concentration in brain/plasma).
Data set [2] can be described thus: Evaluation of oral absorbability. Format: in vivo, BALB/cA mice. The note with it: mouse; plasma, oral 50 mg/kg/day, BALB/cA mice. Here is the method:
The compound of the present invention was suspended or dissolved in 0.5% HPMC aqueous solution and 0.1 N hydrochloric acid, and the obtained suspension or solution was orally administered to BALB/cA mice (CLEA Japan, Inc.) at a dose of 50 mg/kg/day. At 0.5, 1, 2, 4 and 6 hours after completion of the oral administration, blood was collected from the facial vein over time, so as to obtain plasma. The concentration of the compound in the obtained plasma was measured by LC-MS/MS, and the oral absorbability of the present compound was evaluated.

The target of data set [3] is Ba/F3-HER2insYVMA cells (Homo sapiens, UniProt P04626, DUP772-775, cells depend on it). Description: Growth inhibitory activity against HER2 exon 20 insertion mutant expressing cell line. The following applies: 3 days, CellTiter-Glo 2.0, read-out: HER2ex20insYVMA cell growth inhibitory activity IC50 value. The data set is classed as cell-based, mouse. Here is the method: Growth inhibitory activity against the HER2 exon 20 insertion mutant was measured using Ba/F3 cells that were a mouse B lymphocyte precursor cell line, into which a human HER2 exon 20 insertion mutant gene had been introduced. The Ba/F3 cells were maintained in an RPMI-1640 medium (Thermo Fisher Scientific) supplemented with 10% fetal bovine serum (FBS), 100 U/mL penicillin, 100 μg/mL streptomycin (Thermo Fisher Scientific) and 1 ng/mL mouse interleukin-3 (mIL-3) (CST).
Upon evaluation of cell growth inhibitory activity, the Ba/F3-HER2insYVMA cells were suspended in an RPMI-1640 medium supplemented with 10% FBS, 100 U/mL penicillin, and 100 μg/mL streptomycin. The cell suspension was seeded in each well of a 96-well flat-bottom microplate, and was then cultured in a 5% carbon dioxide gas-containing culture vessel at 37° C. for 1 day. The compound of the present invention was dissolved in DMSO, and was then diluted with DMSO or the medium used in the suspension of the cells. The obtained solution was then added to each well of the culture plate, so that the final concentration of DMSO became 0.2%. The obtained mixture was further cultured in the 5% carbon dioxide gas-containing culture vessel at 37° C. for 3 days. After completion of the culture for 3 days in the presence of the compound, the cells were counted using CellTiter-Glo 2.0 (manufactured by Promega), and the growth inhibition percentage was then calculated according to the following equation. […] Growth inhibitory percentage (%)=(C−T)/(C)×100 T: Emission intensity from the well to which the test compound was added C: Emission intensity from the well to which the test compound was not added
(ATP-based viability assays read luminescence as a measure of living cells.)

[4] abbreviates: brain, read-out: Compound concentration in brain.
Setting [5] is: plasma, read-out: Compound concentration in plasma.

These results are taken from patent publication US11078207B2, “Substituted pyrrolo[2,3-d]pyrimidines as HER2 inhibitors” (TAIHO PHARMACEUTICAL CO., LTD., priority 2019, dated 2021).

Read-outs that look alike come from different tables or passages of the source.

Chain of Ba/F3-HER2insYVMA cells (P04626 with tags, fused parts or gaps DUP772-775): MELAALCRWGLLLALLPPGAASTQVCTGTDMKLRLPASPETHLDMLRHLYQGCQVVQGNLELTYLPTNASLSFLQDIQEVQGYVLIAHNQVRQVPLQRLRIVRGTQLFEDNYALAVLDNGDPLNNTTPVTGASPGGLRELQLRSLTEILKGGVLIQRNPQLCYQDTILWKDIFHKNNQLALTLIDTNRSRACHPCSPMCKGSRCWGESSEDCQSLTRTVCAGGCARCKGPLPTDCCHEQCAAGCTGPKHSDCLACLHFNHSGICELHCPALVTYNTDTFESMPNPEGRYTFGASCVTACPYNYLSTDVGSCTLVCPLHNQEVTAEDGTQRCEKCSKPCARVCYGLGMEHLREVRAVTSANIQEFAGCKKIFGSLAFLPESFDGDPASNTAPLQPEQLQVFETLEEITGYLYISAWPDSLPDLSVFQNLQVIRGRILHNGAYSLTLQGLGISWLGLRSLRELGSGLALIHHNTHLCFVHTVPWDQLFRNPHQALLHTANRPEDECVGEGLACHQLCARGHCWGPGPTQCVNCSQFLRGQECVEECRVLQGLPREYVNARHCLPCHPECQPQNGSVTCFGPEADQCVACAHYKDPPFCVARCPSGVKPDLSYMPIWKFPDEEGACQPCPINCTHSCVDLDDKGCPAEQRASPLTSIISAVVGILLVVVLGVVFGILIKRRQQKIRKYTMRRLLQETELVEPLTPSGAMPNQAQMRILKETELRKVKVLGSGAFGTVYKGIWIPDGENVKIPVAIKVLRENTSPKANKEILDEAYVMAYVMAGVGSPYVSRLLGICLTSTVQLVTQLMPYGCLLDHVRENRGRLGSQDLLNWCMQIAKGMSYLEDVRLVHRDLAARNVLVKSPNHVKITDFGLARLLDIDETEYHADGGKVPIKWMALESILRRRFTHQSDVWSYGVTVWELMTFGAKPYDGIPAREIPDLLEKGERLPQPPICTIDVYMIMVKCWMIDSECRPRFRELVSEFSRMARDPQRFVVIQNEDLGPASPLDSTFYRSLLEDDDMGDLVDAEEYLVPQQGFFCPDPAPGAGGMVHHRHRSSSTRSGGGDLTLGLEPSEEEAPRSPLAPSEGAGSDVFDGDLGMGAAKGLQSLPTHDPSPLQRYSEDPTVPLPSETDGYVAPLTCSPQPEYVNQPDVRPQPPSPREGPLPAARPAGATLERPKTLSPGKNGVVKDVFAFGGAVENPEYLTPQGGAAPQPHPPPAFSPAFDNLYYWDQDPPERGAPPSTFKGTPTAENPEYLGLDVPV

Broadly, the AUC(0-t) is exposure summed from dosing to a finite time, without extrapolation to infinity. Turning to `C=CC(=O)N1C[C@H](n2c(C#CC)c(C(=O)N[C@H](C)c3cc(F)cc(F)c3)c3c(N)ncnc32)C[C@@H]1C` [Example 1, 7-(R)-((3R,5S)-1-acryloyl-5-methylpyrrolidin-3-yl)-4-amino-N—((R)-1-(3,5-difluorophenyl)ethyl)-6-(prop-1-yn-1-yl)-7H-pyrrolo[2,3-d]pyrimidine-5-carboxamide], the concentration at 0.5 h in data set [1] (setting [4]) came out at 1.4 µM; in data set [1] (setting [5]), 9.1 µM. The Kp at 0.5 h in data set [1] (brain) stood at 0.15. Also, in data set [2], the AUC(0-t) is 50 µM·h. Besides, in data set [3], the GI50 was determined as 17 nM.

Turning to `C=CC(=O)N1C[C@H](n2c(C#CC)c(C(=O)NC(C)(C)c3ccccc3)c3c(N)ncnc32)C[C@@H]1C` [Example 3, 7-((3R,5S)-1-acryloyl-5-methylpyrrolidin-3-yl)-4-amino-N-(2-phenylpropan-2-yl)-6-(prop-1-yn-1-yl)-7H-pyrrolo[2,3-d]pyrimidine-5-carboxamide], the concentration at 0.5 h in data set [1] (setting [4]) amounted to 1.4 µM; in data set [1] (setting [5]), 11 µM. In addition, the Kp at 0.5 h in data set [1] (brain) was 0.13. The compound also yielded an area under the curve AUC(0-t) in data set [2] of 24 µM·h. For the same compound, in data set [3], the GI50 was 25 nM.

As to `C=CC(=O)N1C[C@H](n2c(C#CC)c(C(=O)N[C@H](CC)c3ccccc3)c3c(N)ncnc32)C[C@@H]1C` [Example 4, 7-((3R,5S)-1-acryloyl-5-methylpyrrolidin-3-yl)-4-amino-N—((R)-1-phenylpropyl)-6-(prop-1-yn-1-yl)-7H-pyrrolo[2,3-d]pyrimidine-5-carboxamide], the figures for the concentration at 0.5 h in data set [1] (setting [4]) and in data set [1] (setting [5]) were 2.8 µM and 8.3 µM, respectively. Besides, in data set [1] (brain), the Kp at 0.5 h was found to be 0.34. The exposure AUC(0-t) in data set [2] was 12 µM·h. The GI50 in data set [3] was found to be 20 nM.

For `C=CC(=O)N1C[C@H](n2c(C#CC)c(C(=O)NC(C)(C)c3ccccc3F)c3c(N)ncnc32)C[C@@H]1C` [Example 5, 7-((3R,5S)-1-acryloyl-5-methylpyrrolidin-3-yl)-4-amino-N-(2-(2-fluorophenyl)propan-2-yl)-6-(prop-1-yn-1-yl)-7H-pyrrolo[2,3-d]pyrimidine-5-carboxamide], the concentration at 0.5 h in data set [1] (setting [4]) came out at 2.2 µM; in data set [1] (setting [5]), 15 µM. For the same compound, the Kp at 0.5 h in data set [1] (brain) was 0.15. For the same compound, the AUC(0-t) in data set [2] came to 20 µM·h. Further, the GI50 in data set [3] worked out at 14 nM.

Regarding `C=CC(=O)N1C[C@H](n2c(C#CC)c(C(=O)N[C@H](C)c3cccc(Cl)c3)c3c(N)ncnc32)C[C@@H]1C` [Example 6, 7-((3R,5S)-1-acryloyl-5-methylpyrrolidin-3-yl)-4-amino-N—((R)-1-(3-chlorophenyl)ethyl)-6-(prop-1-yn-1-yl)-7H-pyrrolo[2,3-d]pyrimidine-5-carboxamide], the figures for the concentration at 0.5 h in data set [1] (setting [4]) and in data set [1] (setting [5]) were 1.3 µM and 7.5 µM, respectively. For the same compound, the Kp at 0.5 h in data set [1] (brain) stood at 0.17. Also, the AUC(0-t) in data set [2] was 17 µM·h. Further, the GI50 in data set [3] amounted to 28 nM.

On to `C=CC(=O)N1C[C@H](n2c(C#CC)c(C(=O)N[C@@H](c3ccccc3)C(F)(F)F)c3c(N)ncnc32)C[C@@H]1C` [Example 8, 7-((3R,5S)-1-acryloyl-5-methylpyrrolidin-3-yl)-4-amino-6-(prop-1-yn-1-yl)-N—((S)-2,2,2-trifluoro-1-phenylethyl)-7H-pyrrolo[2,3-d]pyrimidine-5-carboxamide], for which the concentration at 0.5 h was 3.3 µM in data set [1] (setting [4]) and 9.9 µM in data set [1] (setting [5]). Also, the Kp at 0.5 h in data set [1] (brain) worked out at 0.33. The area under the curve AUC(0-t) in data set [2] stood at 15 µM·h. Further, in data set [3], the GI50 is 26 nM.

As to `C=CC(=O)N1C[C@H](n2c(C#CC3CC3)c(C(=O)NC(C)(C)c3ccccc3)c3c(N)ncnc32)C[C@@H]1C` [Example 9, 7-((3R,5S)-1-acryloyl-5-methylpyrrolidin-3-yl)-4-amino-6-(cyclopropylethynyl)-N-(2-phenylpropan-2-yl)-7H-pyrrolo[2,3-d]pyrimidine-5-carboxamide], the concentration at 0.5 h in data set [1] (setting [4]) was determined as 2.4 µM; in data set [1] (setting [5]), 13 µM. Further, in data set [1] (brain), the Kp at 0.5 h was found to be 0.18. The same compound registered an AUC(0-t) in data set [2] of 51 µM·h. Also, the GI50 in data set [3] is 24 nM.

Consider `C=CC(=O)N1C[C@H](n2c(C#CC3CC3)c(C(=O)N[C@H](C)c3cccc(F)c3F)c3c(N)ncnc32)C[C@@H]1C` [Example 10, 7-((3R,5S)-1-acryloyl-5-methylpyrrolidin-3-yl)-4-amino-6-(cyclopropylethynyl)-N—((R)-1-(2,3-difluorophenyl)ethyl)-7H-pyrrolo[2,3-d]pyrimidine-5-carboxamide], for which the concentration at 0.5 h in data set [1] (setting [4]) turned out to be 2.4 µM; in data set [1] (setting [5]), 13 µM. Also, in data set [1] (brain), the Kp at 0.5 h came to 0.18. This compound also displayed an exposure AUC(0-t) in data set [2] of 50 µM·h. Further, in data set [3], the GI50 stood at 29 nM.

`C=CC(=O)N1C[C@H](n2c(C#CC(C)(C)OC)c(C(=O)N[C@H](C)c3ccccc3)c3c(N)ncnc32)C[C@@H]1C` [Example 13, 7-((3R,5S)-1-acryloyl-5-methylpyrrolidin-3-yl)-4-amino-6-(3-methoxy-3-methylbut-1-yn-1-yl)-N—((R)-1-phenylethyl)-7H-pyrrolo[2,3-d]pyrimidine-5-carboxamide]: the concentration at 0.5 h in data set [1] (setting [4]) is 2.8 µM; in data set [1] (setting [5]), 13 µM. The Kp at 0.5 h in data set [1] (brain) was found to be 0.22. In addition, in data set [2], the area under the curve AUC(0-t) stood at 18 µM·h. For the same compound, the GI50 in data set [3] was found to be 23 nM.

For the compound `C=CC(=O)N1C[C@H](n2c(C#CCC)c(C(=O)N[C@H](C)c3ccccc3)c3c(N)ncnc32)C[C@@H]1C` [Example 14, 7-((3R,5S)-1-acryloyl-5-methylpyrrolidin-3-yl)-4-amino-6-(but-1-yn-1-yl)-N—((R)-1-phenylethyl)-7H-pyrrolo[2,3-d]pyrimidine-5-carboxamide], the concentration at 0.5 h in data set [1] (setting [4]) was found to be 2.1 µM; in data set [1] (setting [5]) it was 9.9 µM. Besides, the Kp at 0.5 h in data set [1] (brain) was determined as 0.21. Moreover, the AUC(0-t) in data set [2] turned out to be 27 µM·h. The GI50 in data set [3] turned out to be 27 nM.

As for `C=CC(=O)N1C[C@H](n2c(C#CC)c(C(=O)N[C@H](C)c3ccccc3)c3c(N)ncnc32)C[C@@H]1CC` [Example 16, 7-((3R,5S)-1-acryloyl-5-ethylpyrrolidin-3-yl)-4-amino-N—((R)-1-phenylethyl)-6-(prop-1-yn-1-yl)-7H-pyrrolo[2,3-d]pyrimidine-5-carboxamide], the concentration at 0.5 h in data set [1] (setting [4]) is 4.4 µM; in data set [1] (setting [5]), 12 µM. Moreover, the Kp at 0.5 h in data set [1] (brain) is 0.35. The area under the curve AUC(0-t) in data set [2] is 15 µM·h. For the same compound, in data set [3], the GI50 came to 9.7 nM.

On to `C=CC(=O)N1C[C@H](n2c(C#CC3CC3)c(C(=O)N[C@H](C)c3ccccc3)c3c(N)ncnc32)C[C@@H]1CC` [Example 17, 7-((3R,5S)-1-acryloyl-5-ethylpyrrolidin-3-yl)-4-amino-6-(cyclopropylethynyl)-N—((R)-1-phenylethyl)-7H-pyrrolo[2,3-d]pyrimidine-5-carboxamide], for which the concentration at 0.5 h came to 6.5 µM in data set [1] (setting [4]) and 17 µM in data set [1] (setting [5]). Also, the Kp at 0.5 h in data set [1] (brain) came to 0.39. Moreover, in data set [2], the area under the curve AUC(0-t) amounted to 21 µM·h. Moreover, the GI50 in data set [3] is 20 nM.
